Source: publication PMC6389896 (Communications Biology, 2019)
“And” between values parts separate entries of the source, which are not always exact repeats. Equal values may be shown once. Read-outs that look alike come from different tables or passages of the source.

Legend:
[1] = cited from earlier work
[2] = human or primate CSF, mammalian hippocampus and amygdala; cited from earlier work
[3] = Oxytocin in CSF from the cisterna magna after administration, EIA; type: in vivo, mouse; conditions: for CSF OT: individual animals, listed as OT
Method: (§1) CSF was collected according to the protocol for sampling CSF from mice without detectable plasma contamination[77],[78]. Under ketamine anaesthesia (100 mg/kg intraperitoneally), the occipital skull was exposed, and the dura mater of the cisterna magna appeared as a glistening and clear reverse triangle through which the medulla oblongata, a major blood vessel (arteria dorsalis spinalis), and CSF space were visible. A capillary tube was inserted into the cisterna magna through the dura mater, blood-free CSF samples were collected with a 32G needle and immediately frozen with dry ice prior to storage at −80 °C. After CSF collections, blood samples were obtained by cardiac puncture from the mice under continuous ketamine anaesthesia.
(§2) The CSF samples (5 μl) were thawed and diluted 1:20 in assay buffer. CSF samples were assayed without protein extraction due to the low protein concentration in the CSF. […] The inter-assay and intra-assay coefficients of variation were less than 15%.

human esRAGE = human esRAGE (Homo sapiens, UniProt Q15109); experiment: Surface plasmon resonance (BIAcore) of oxytocin binding to immobilised esRAGE; conditions: SPR BIAcore 2000, immobilised recombinant human esRAGE (~5000 RU), 10 mM HEPES pH 7.4, 0.15 M NaCl, 25 °C; read-out: apparent dissociation constant (KD)
Chain of human esRAGE (Q15109 23-347 isoform Q15109-3 limits assumed): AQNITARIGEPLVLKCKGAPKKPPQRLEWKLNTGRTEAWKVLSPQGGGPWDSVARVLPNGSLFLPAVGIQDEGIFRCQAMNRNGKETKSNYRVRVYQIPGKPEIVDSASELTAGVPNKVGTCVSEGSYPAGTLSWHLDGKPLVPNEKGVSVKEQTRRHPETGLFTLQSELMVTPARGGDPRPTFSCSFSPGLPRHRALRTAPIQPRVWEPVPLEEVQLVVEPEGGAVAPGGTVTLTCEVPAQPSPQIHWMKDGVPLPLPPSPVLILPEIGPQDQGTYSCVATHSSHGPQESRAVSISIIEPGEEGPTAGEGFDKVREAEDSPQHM
Method: Isolated human esRAGE was immobilised to BIAcore CM5 research grade sensor chips with the amine coupling kit to a density of ~5000 response units (RU)[27],[32],[41]. […] The sensor chips were regenerated with 10 mM NaOH and 0.5% SDS (W/V).

[4] = Oxytocin in CSF after transient brain ischaemia (BCCAO) or sham operation; type: in vivo, mouse; conditions: individual animals, listed as OT
[5] = Plasma oxytocin after subcutaneous injection, EIA; type: in vivo, mouse; conditions: WT and Ager-/- male mice
Method: as §1, §2
Supplementary Figure 5. Transportation of peripherally administrated oxytocin (OT) or PBS into […]
Blood was recovered from the cardiac ventricles of the wild type (WT, RAGE+/+) and Ager-/- (RAGE-/-) male mice (n = 3–16). Oxytocin was measured in the extracted samples. […]
concentrations were measured with enzyme immunosorbent assay (EIA) or LC-MS/MS. […]

[6] = system: monkey brain capillary endothelial cells; experiment: In vitro blood-brain barrier (BBB) model (MBT-24H), transport between luminal and abluminal chambers, control or RAGE shRNA knockdown; conditions: individual wells, listed as OT; for OT in lower (abluminal, brain) chamber: blood-to-brain, 3 h; for OT in luminal chamber: brain-to-blood, n = 3
Method: EC, monkey brain capillary endothelial cells; Peri, rat brain pericytes; Astro, rat astrocytes. […] The endothelial cells used in the upper chamber in a were treated with RAGE shRNA (knockdown, KD) or control (C or CNT) vectors to assess the effects of RAGE knockdown. […] Values are mean ± SEM
For the in vitro BBB model (MBT-24H, PharmaCo-Cell Co., Nagasaki, Japan), rat brain pericytes (1.5 × 10^4 cells/cm^2) and rat astrocytes (1.5 × 10^4 cells/cm^2) were seeded on the bottom of the collagen-coated polyester membranes of Transwell inserts (Corning Life Sciences, MA, USA). After 16 h the cells firmly adherent, monkey brain vascular endothelial cells (1.5 × 10^5 cells/cm^2) were then seeded on the upper side of the inserts in 24-well culture plates. The in vitro BBB models were established within 4 days of seeding the cells according to the manufacturer’s instructions. Trans-endothelial electrical resistance (TEER), which primarily reflects the flux of sodium ions through the cell layers in the culture conditions, was measured with an epithelial-volt-ohm metre and an Endohm-6 chamber electrodes (World Precision Instruments, Sarasota, FL, USA). The TEERs of the coated, cell-free filters were subtracted from the measured TEER values of the models and shown as Ω cm^2. The apparent permeability constants (Papp) between luminal and abluminal chambers were calculated from the distribution ratios. Endothelial expression was silenced using RAGE shRNA and the pSilencer 3.0-H1 vector (Ambion, Austin, TX, USA)[41]. […]

[7] = parameters: method as in earlier work; conditions: i.n. application of 50 μg oxytocin in female pigs; ref 18 (Rault et al.); cited from earlier work

CSF OT ([3]; WT+Tg (endothelial human RAGE) mice, 60 min after sc oxytocin): 1.066% and 1.83% and 1.926% and 1.872% | oxytocin concentrations in the CSF of Ager-/- mice after injection ([3]; sc 30 ng/mouse, Ager-/- mice): remained at baseline levels | time of maxima of oxytocin in CSF from the cisterna magna ([3]; sc 30 ng/mouse, WT mice): 1 to 2 h | time of return of CSF oxytocin to baseline ([3]; sc 30 ng/mouse, WT mice): 4 h | Kd (human esRAGE): 179 nM | Tmax ([5]; plasma, sc 30 ng/mouse (approximately 1.1 μg/kg)): ≤ 10 min | time of return of blood oxytocin to baseline ([5]; sc 30 ng/mouse): 1 to 2 h | OT in luminal chamber ([6]; 1 ng/ml abluminal, RAGE KD): 0.32 pg/mL and 0.34 pg/mL and 0.36 pg/mL | OT in luminal chamber ([6]; 1 ng/ml added to abluminal chamber, control (C)): 0.84 pg/mL and 1.12 pg/mL and 0.62 pg/mL | OT in luminal chamber ([6]; 10 ng/ml abluminal, RAGE KD): 2 pg/mL and 1.68 pg/mL and 0.8 pg/mL | OT in luminal chamber ([6]; 10 ng/ml abluminal, control (C)): 4 pg/mL and 5.2 pg/mL and 5.4 pg/mL | apparent permeability constant (Papp) ([6]; head 10 ng/ml, RAGE KD, calculated from distribution ratios): 0.076 x10^-6 and 0.098 x10^-6
Compound: CC[C@H](C)[C@@H]1NC(=O)[C@H](Cc2ccc(O)cc2)NC(=O)[C@@H](N)CSSC[C@@H](C(=O)N2CCC[C@H]2C(=O)N[C@@H](CC(C)C)C(=O)NCC(N)=O)NC(=O)[C@H](CC(N)=O)NC(=O)[C@H](CCC(N)=O)NC1=O [oxytocin, Oxytocin]
share of peripherally applied oxytocin that reaches the CNS ([1]; 5 μg, 10 min after subcutaneous or intraperitoneal administration, rats): approximately 0.002% | bioavailability ([1]; LC/MS after administration of 500 μg oxytocin in rats): approximately 2% | share of oxytocin peptide accumulated on the BBB ([1]; intracarotid artery bolus of 125I- or 3H-labelled oxytocin, rats): 1–2% | time of maximal oxytocin concentrations after peripheral administration [2]: 10 to 60 min | CSF OT ([3]; KO (Ager-/-) mice, 60 min after sc oxytocin): 1.096% and 1.022% and 1.298% and 0.875% and 0.8155% and 0.9128% and 1.16% and 0.679% and 1.176% and 1.081% and 0.9794% and 0.8625% | CSF OT ([3]; KO+Tg mice, 60 min after sc oxytocin): 1.051% and 1.1275% and 0.9794% and 1.244% and 1.354% and 2.625% | CSF OT ([3]; female Ager-/- mice, 60 min after sc OT): 110.13% and 105.01% and 103.76% and 85.23% and 99.81% and 68.15% | CSF OT ([3]; female WT mice, 60 min after sc OT): 169.21% and 199.15% and 65.08% and 204.46% and 219.88% and 175.37% and 233.36% and 183.92% and 188.35% | CSF OT ([4]; Ager-/- BCCAO male mice): 121.746% and 129.498% and 127.909% and 71.8544% and 61.8033% and 79.0857% and 110.296% and 99.9236% and 126.34% | CSF OT ([4]; Ager-/- Sham male mice): 71.8544% and 61.8033% and 67.0976% and 118.777% and 117.319% and 98.6976% | CSF OT ([4]; WT BCCAO male mice): 191.756% and 287.616% and 179.547% and 244.561% and 258.145% | CSF OT ([4]; WT Sham male mice, cisterna magna, after exogenous oxytocin): 155.233% and 188.051% and 122.984% and 133.451% | OT in lower (abluminal, brain) chamber ([6]; 1 ng/ml added to luminal chamber, control vector (C)): 10 pg/mL and 13 pg/mL and 13.5 pg/mL and 11.5 pg/mL and 22.2 pg/mL | OT in lower (abluminal, brain) chamber ([6]; 1 ng/ml luminal, RAGE shRNA knockdown (KD)): 5 pg/mL and 4.2 pg/mL and 2 pg/mL and 8 pg/mL | OT in lower (abluminal, brain) chamber ([6]; 10 ng/ml luminal, RAGE KD): 8 pg/mL and 8.5 pg/mL and 9 pg/mL and 5 pg/mL | OT in lower (abluminal, brain) chamber ([6]; 10 ng/ml luminal, control vector (C)): 21 pg/mL and 28 pg/mL and 15.5 pg/mL and 24 pg/mL and 27 pg/mL | apparent permeability constant (Papp) ([6]; head 1 ng/ml, RAGE KD, calculated from distribution ratios): 1.263 x10^-6 and 1.061 x10^-6 and 0.505 x10^-6 and 2.02 x10^-6 | apparent permeability constant (Papp) ([6]; head 1 ng/ml, control (C), calculated from distribution ratios across chambers): 2.525 x10^-6 and 3.283 x10^-6 and 3.409 x10^-6 and 2.904 x10^-6 | bioavailability [7]: 0.001%
